Reference: ChEMBL document CHEMBL1221212, “Small-molecule activation of neuronal cell fate” (Nat Chem Biol, 2008)
Activity calls are given as the source filed them. No cut-off for these calls is given here.

Key:
Format in all cases: functional, cell-based
HCN [1] = assay: Induction of rat HCN cell differentiation assessed as induction of neuronal reporter neuroD activity at 20 uM after 24 hrs by luciferase reporter gene assay
HCN [2] = assay: Induction of rat HCN cell differentiation assessed as induction of neuronal reporter neuroD activity by luciferase reporter gene assay
P19CL6 = assay: Induction of mouse C57BL/6 P19CL6 cell differentiation assessed as induction of neuronal reporter neuroD activity by luciferase reporter gene assay

| Compound | Activity (HCN [1]) | Activity (HCN [2]) | Activity (P19CL6) |
| --- | --- | --- | --- |
| O=C(NC1CCCCC1)c1cc(-c2cccs2)on1 | Active |  |  |
| Cc1cc(C(=O)Nc2sc3c(c2C#N)CCCC3)no1 |  | Dose-dependent effect |  |
| CNC(=O)c1cc(-c2cccs2)on1 | Active |  |  |
| O=C(NC1CCCC1)c1cc(-c2ccco2)on1 |  | Dose-dependent effect | Dose-dependent effect |
